The test system of series [1] is plasmin. In words: Inhibitory effects for fibrinolysis of plasmin (fibrinolytic activity in rabbits after human serum and streptokinase). The class given is in vivo, rabbit. To be noted: 5 mg/kg iv. As to the method: Inhibitory effects for fibrinolysis of plasmin were examined according to the method of S. Okamoto and U. Okamoto (Keio Journal of Medicine 11 (No. 3) 105 (1962)).
10 ml of human serum was administered to male rabbits weighing 2.0 to 2.5 Kg through the femoral vein, and after 2 minutes 50,000 units of streptokinase was administered to the rabbits intraveneously to activate plasmin.
Each of the test compounds of the present invention was administered to the rabbits at a dosage level of 5 mg/Kg 5 minutes after the administration of streptokinase. After 15, 30, 60, 90, 120 and 180 minutes, 0.5 ml of blood was drawn from the rabbits, and the blood then incubated at 37° C. for 3 hrs. to coagulate the blood. The thus formed blood clots were washed with water and dried. The dry weight of the blood clots was evaluated and compared with the normal value (the value obtained prior to administration of the human serum).
The values in Table 2 were calculated according to the following equation: [formula]

Series [2] relates to rat pancreatitis. In words: Effect on rat pancreatitis induced by sodium taurocholate and trypsin (mortality). In kind it is in vivo, rat (male Wistar). The conditions noted are these: intravenous injection. As to the method:
Male Wistar rats weighing 200 to 250 g were laparotomized under anesthetization with pentobarbital and to the thus laparotomized rats 0.1 ml of a mixture of sodium taurocholate and trypsin was administered through the pancreatic duct to induce pancreatitis.
Mortality rates for up to 48 hrs. after the administration were compared between the groups in which the compounds of the present invention were injected intravenously and the control groups in which a physiological salt solution was injected intravenously.

In series [3] the target is T1, trypsin (Bos taurus, UniProt P00760).
T1 sequence (P00760 24-246): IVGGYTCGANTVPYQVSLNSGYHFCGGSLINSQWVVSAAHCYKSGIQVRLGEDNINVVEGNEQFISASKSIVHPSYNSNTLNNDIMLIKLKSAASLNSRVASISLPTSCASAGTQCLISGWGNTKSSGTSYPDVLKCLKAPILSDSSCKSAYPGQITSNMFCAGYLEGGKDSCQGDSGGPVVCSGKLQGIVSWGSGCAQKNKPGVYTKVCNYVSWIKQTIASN
As to the kind of experiment: Anti-trypsin: 50% inhibition of hydrolysis of p-tosylarginine methyl ester by trypsin in vitro. In kind it is biochemical. The conditions noted are these: 37° C., 30 minutes, Tris-HCl buffer pH 8.5, p-tosylarginine methyl ester substrate; read-out: 50% Inhibition Concentration, Anti-Trypsin. As to the method:
The inhibitory activities of representative compounds of formula (I) against plasmin and trypsin in vitro were determined in a manner similar to the method described by M. Muramatsu et al (J. Biochemistry 57, 402 (1965)) for plasmin, and the method described by M. Muramatsu et al (J. Biochemistry 58, 214 (1964)) for trypsin, as follows:
(2) Trypsin: A system comprising 0.4 ml of trypsin (1.25 μg/ml), 0.5 ml of p-tosylarginine methyl ester (20 mM) in Tris-HCl buffer (pH 8.5) and 0.1 ml of a solution of each of the following compounds of formula (I) at various concentrations was reacted at a temperature of 37° C. for 30 minutes. The concentration of each of the test compounds at which the activity of trypsin 0.5 μg to hydrolyze p-tosylarginine methyl ester was 50% inhibited is shown in Table 1 below. As a control, Trasylol (tradename of a peptide extracted from bovine organs having an inhibitory activity against a proteolytic enzyme and manufactured by Bayer A.G.) was used.

Series [4] concerns the target T2, plasmin (Homo sapiens, UniProt P00747).
T2 construct: from tissue
In words: Anti-plasmin: 50% inhibition of plasmin in vitro (euglobulin/streptokinase/fibrinogen system). In kind it is biochemical. The method, then:
(1) Plasmin: A system comprising 0.1 ml of human euglobulin (10 fold dilution), 0.1 ml of streptokinase (2000 unit/ml), 0.4 ml of fibrinogen (4% solution), 0.3 ml of a 0.1 M borate saline buffer solution (pH 7.4) and 0.1 ml of a solution of each of the following compounds of formula (I) at various concentrations was allowed to react at a temperature of 37° C. for 30 minutes.

Series [5] can be described thus: Solubility in water. In kind it is physicochemical.
The mark [6] stands for this setting: 37° C., 30 minutes, borate saline buffer pH 7.4, human euglobulin, streptokinase, fibrinogen, read-out: 50% Inhibition Concentration, Anti-Plasmin.

Eight compounds from US4021472A, “Guanidinobenzoic acid derivatives” (Ono Pharmaceutical Co., Ltd., priority 1974, dated 1977) can be followed below.

Molecules are shown by their SMILES. ≈ marks a conversion by molar mass, not a printed value. Where two headings read alike, the source gives them in different places.

T2 sequence (P00747 581-810 limits assumed): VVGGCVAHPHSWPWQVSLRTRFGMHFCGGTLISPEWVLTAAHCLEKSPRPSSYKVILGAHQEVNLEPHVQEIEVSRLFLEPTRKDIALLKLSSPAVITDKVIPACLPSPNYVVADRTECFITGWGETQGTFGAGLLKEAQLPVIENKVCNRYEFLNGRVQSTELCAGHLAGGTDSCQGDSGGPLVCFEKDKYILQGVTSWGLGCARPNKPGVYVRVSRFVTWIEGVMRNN
T2 sequence (P00747 97-580 partner limits assumed): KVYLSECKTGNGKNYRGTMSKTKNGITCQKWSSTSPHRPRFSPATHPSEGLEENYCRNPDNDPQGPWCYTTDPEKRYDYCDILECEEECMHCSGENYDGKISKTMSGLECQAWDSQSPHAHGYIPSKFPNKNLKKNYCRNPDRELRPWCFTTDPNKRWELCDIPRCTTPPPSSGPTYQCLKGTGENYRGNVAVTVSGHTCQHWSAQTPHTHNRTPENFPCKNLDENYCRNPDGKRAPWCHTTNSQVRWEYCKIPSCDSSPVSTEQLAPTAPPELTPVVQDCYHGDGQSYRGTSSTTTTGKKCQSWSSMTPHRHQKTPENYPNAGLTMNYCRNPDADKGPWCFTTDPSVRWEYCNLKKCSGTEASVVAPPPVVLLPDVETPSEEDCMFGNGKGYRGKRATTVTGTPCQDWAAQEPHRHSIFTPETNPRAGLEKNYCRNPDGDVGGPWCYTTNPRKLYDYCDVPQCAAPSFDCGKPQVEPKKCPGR

As for `CNC(=O)COC(=O)c1ccc(OC(=O)c2ccc(NC(=N)N)cc2)cc1` [Compound No.2], the “Fibrinolytic Activity in Rabbits” value in series [1] (15 min. after) worked out at 0%; in series [1] (30 min. after), 0%; in series [1] (60 min. after), 2%; in series [1] (90 min. after) it was 2%; in series [1] (120 min. after), 12%; in series [1] (180 min. after), 31%. The “Mortality for 48 hrs.” value in series [2] (1 mg/kg) came to 85.7%; in series [2] (2.5 mg/kg) it was 42.8%; in series [2] (5.0 mg/kg), 30%. The IC50 is 3.5 nM in series [3] and 1.6 nM in series [4] (setting [6]). Moreover, the concentration in solution in series [5] (solubility) was 50 mM (≈ 18500 µg/mL).
Take `CN(C)C(=O)COC(=O)Cc1ccc(OC(=O)c2ccc(NC(=N)N)cc2)cc1` [Compound No.5]: the “Fibrinolytic Activity in Rabbits” value in series [1] (15 min. after) is 0%; in series [1] (30 min. after), 0%; in series [1] (60 min. after), 4%; in series [1] (90 min. after), 20%; in series [1] (120 min. after), 46%; in series [1] (180 min. after), 52%. Also, the “Mortality for 48 hrs.” value in series [2] (1 mg/kg) is recorded as 64.2%; in series [2] (2.5 mg/kg), 50.0%; in series [2] (5.0 mg/kg), 44.4%. Besides, the values for the IC50 in series [3] and in series [4] were 8.5 nM and 38 nM, respectively. Besides, in series [5], the concentration in solution (solubility) was 100 mM (≈ 39800 µg/mL).
For the compound `N=C(N)Nc1ccc(C(=O)Oc2ccc(C(=O)OCC(N)=O)cc2)cc1` [compound 1], the IC50 was determined as 3 nM in series [3] and 15 nM in series [4] (setting [6]). The solubility (as a rule, how much of the substance goes into solution per volume) in series [5] stood at 1 mM (≈ 356 µg/mL).
For `CN(C)C(=O)COC(=O)c1ccc(OC(=O)c2ccc(NC(=N)N)cc2)cc1` [compound 3], the IC50 in series [3] was determined as 2.7 nM; in series [4] (setting [6]), 2 nM. This compound also came in with a solubility in series [5] above 20 mM.
As to `CCCN(CCC)C(=O)COC(=O)c1ccc(OC(=O)c2ccc(NC(=N)N)cc2)cc1` [compound 4], the results for the IC50 in series [3] and in series [4] (setting [6]) were 1.4 nM and 0.53 nM, respectively. The same compound displayed a solubility in series [5] of 10 mM (≈ 4410 µg/mL).
As to `CN(C)C(=O)COC(=O)C=Cc1ccc(OC(=O)c2ccc(NC(=N)N)cc2)cc1` [compound 6], the figures for the IC50 in series [3] and in series [4] (setting [6]) were 0.09 nM and 19.5 nM, respectively. The same compound returned a solubility in series [5] of 10 mM (≈ 4100 µg/mL).
As to `CN(C)C(=O)COC(=O)CCc1ccc(OC(=O)c2ccc(NC(=N)N)cc2)cc1` [compound 7], the IC50 amounted to 0.56 nM in series [3] and 120 nM in series [4] (setting [6]). This compound registered a solubility in series [5] of 10 mM (≈ 4120 µg/mL).
In the case of `CNC(=O)COC(=O)Cc1ccc(OC(=O)c2ccc(NC(=N)N)cc2)cc1` [compound 8], the IC50 in series [3] was found to be 12 nM; in series [4] (setting [6]) it was 10 nM. Moreover, the solubility in series [5] stood at 10 mM (≈ 3840 µg/mL).
